Data taken from ChEMBL document CHEMBL5653631, “A Potent and Selective ULK1 Inhibitor Suppresses Autophagy and Sensitizes Cancer Cells to Nutrient Stress” (iScience, 2018).
Blank lines part the entries; values can stand above or below the compound they belong to.

Key:
[1] = molecular target: T1, Protein kinase C zeta type (Homo sapiens) (UniProt Q05513); test: Inhibition of human recombinant PKCz at 500 nM related to control ULK1
T1 sequence (whole entry): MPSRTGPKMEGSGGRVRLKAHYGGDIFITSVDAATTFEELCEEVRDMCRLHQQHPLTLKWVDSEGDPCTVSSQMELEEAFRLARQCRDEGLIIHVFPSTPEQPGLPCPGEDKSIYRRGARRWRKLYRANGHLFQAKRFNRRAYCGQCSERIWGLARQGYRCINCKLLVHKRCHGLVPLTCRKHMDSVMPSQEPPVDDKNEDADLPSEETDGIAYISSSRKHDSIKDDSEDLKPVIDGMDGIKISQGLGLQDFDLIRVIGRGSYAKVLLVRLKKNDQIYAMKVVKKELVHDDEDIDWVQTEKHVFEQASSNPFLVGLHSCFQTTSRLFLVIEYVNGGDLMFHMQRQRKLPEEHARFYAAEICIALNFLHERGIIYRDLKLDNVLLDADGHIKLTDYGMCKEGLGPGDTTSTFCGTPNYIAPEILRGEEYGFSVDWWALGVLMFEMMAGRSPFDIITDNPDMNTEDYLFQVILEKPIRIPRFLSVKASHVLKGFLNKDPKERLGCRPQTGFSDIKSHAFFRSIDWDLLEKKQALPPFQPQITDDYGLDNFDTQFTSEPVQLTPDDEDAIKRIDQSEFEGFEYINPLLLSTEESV

[2] = molecular target: T2, Testis-specific serine/threonine-protein kinase 3 (Homo sapiens) (UniProt Q96PN8); test: Inhibition of human recombinant TSSK3 at 500 nM related to control ULK1
T2 sequence (whole entry): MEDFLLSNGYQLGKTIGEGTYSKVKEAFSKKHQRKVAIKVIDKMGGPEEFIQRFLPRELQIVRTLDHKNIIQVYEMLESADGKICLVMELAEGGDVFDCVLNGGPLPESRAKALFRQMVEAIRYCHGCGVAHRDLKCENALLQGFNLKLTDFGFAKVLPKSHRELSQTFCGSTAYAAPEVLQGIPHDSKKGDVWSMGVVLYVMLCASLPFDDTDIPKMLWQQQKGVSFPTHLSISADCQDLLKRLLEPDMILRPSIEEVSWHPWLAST

[3] = molecular target: Activin receptor type-2A (Homo sapiens) (UniProt P27037); test: Inhibition of human recombinant ACTR2 at 500 nM related to control ULK1
[4] = molecular target: Serine/threonine-protein kinase D2 (Homo sapiens) (UniProt Q9BZL6); test: Inhibition of human recombinant PKD2 at 500 nM in presence of ATP by radiometric assay relative to control
[5] = molecular target: Serine/threonine-protein kinase 35 (Homo sapiens) (UniProt Q8TDR2); test: Inhibition of human recombinant CLIK1 at 15 nM in presence of ATP by radiometric assay relative to control
[6] = molecular target: Calcium/calmodulin-dependent protein kinase type 1G (Homo sapiens) (UniProt Q96NX5); test: Inhibition of human recombinant CaMK1g at 15 nM related to control ULK1
[7] = molecular target: Serine/threonine-protein kinase 32A (Homo sapiens) (UniProt Q8WU08); test: Inhibition of human recombinant YANK1 at 15 nM related to control ULK1
[8] = molecular target: T3, Tyrosine-protein kinase Mer (Homo sapiens) (UniProt Q12866); test: Inhibition of human recombinant MER at 15 nM related to control ULK1
T3 sequence (whole entry): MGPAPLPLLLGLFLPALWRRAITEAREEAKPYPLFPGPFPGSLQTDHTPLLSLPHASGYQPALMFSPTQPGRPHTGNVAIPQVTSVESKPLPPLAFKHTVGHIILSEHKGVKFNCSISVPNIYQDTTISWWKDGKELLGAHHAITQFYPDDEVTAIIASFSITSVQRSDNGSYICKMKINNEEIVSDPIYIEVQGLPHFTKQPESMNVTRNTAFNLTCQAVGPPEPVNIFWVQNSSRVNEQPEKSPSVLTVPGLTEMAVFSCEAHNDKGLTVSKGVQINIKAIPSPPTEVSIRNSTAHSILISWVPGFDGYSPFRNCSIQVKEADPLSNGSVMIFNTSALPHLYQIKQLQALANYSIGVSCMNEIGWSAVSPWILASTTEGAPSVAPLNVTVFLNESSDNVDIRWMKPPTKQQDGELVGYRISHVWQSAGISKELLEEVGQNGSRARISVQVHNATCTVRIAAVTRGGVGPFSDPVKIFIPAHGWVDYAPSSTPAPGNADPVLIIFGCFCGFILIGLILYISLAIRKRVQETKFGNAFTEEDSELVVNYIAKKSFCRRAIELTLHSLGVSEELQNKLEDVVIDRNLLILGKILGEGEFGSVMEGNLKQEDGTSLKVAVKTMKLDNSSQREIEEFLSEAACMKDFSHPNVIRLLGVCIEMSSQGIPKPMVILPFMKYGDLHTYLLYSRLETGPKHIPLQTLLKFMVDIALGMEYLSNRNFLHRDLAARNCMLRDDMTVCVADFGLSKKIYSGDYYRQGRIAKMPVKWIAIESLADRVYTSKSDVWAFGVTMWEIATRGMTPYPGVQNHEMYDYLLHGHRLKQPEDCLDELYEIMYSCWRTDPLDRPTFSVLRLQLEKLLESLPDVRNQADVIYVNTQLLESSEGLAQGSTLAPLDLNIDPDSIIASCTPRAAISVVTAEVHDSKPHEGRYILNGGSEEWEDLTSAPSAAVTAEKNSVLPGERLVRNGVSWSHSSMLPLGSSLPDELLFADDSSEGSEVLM

[9] = molecular target: Dual specificity mitogen-activated protein kinase kinase 1 (Homo sapiens) (UniProt Q02750); test: Inhibition of human recombinant MAP2K1 at 40 nM in presence of ATP by radiometric assay relative to control
[10] = molecular target: Serine/threonine-protein kinase PLK1 (Homo sapiens) (UniProt P53350); test: Inhibition of human recombinant PLK1 at 40 nM related to control ULK1
[11] = molecular target: cAMP-dependent protein kinase catalytic subunit beta (Homo sapiens) (UniProt P22694); test: Inhibition of human recombinant PKACbeta at 40 nM related to control ULK1
[12] = molecular target: Protein kinase C eta type (Homo sapiens) (UniProt P24723); test: Inhibition of human recombinant PKCH at 40 nM related to control ULK1
[13] = molecular target: Calcium/calmodulin-dependent protein kinase type 1B (Homo sapiens) (UniProt Q6P2M8); test: Inhibition of human recombinant CaMK1b at 40 nM related to control ULK1

fold change (FC) [1]: 0
fold change (FC) [2]: 0
fold change (FC) [3]: 0.04
inhibition [4]: 12%
Structure (SMILES): CNC(=O)c1ccccc1Oc1nc(Nc2cc(OC)c(OC)c(OC)c2)ncc1Br

inhibition [5]: 9%
fold change (FC) [6]: 0
fold change (FC) [7]: 0.02
fold change (FC) [8]: 0.39
Structure (SMILES): CC(C)[C@H](NC(=O)c1cc(-c2cnn3cc(-c4ccc(OCCN5CCCCC5)cc4)cnc23)cs1)C(F)(F)F

inhibition [9]: 0%
fold change (FC) [10]: 0
fold change (FC) [11]: 0
fold change (FC) [12]: 0
fold change (FC) [13]: 0
Structure (SMILES): O=C(N[C@@H](C1CC1)C(F)(F)F)c1cc(-c2cnn3cc(-c4ccc(F)cc4)cnc23)cs1
